Holding throughout (assay type): functional
In experiment [1] the test system is Enterococcus faecium. Briefly: Antibacterial activity against Enterococcus faecium ET60 by broth microdilution method. On the technique in general: In broth dilution the organism is exposed to a series of concentrations in liquid medium.
Experiment [2] relates to Enterococcus faecalis. Briefly: Antibacterial activity against Streptococcus faecalis by broth microdilution method.
For experiment [3], the system named is Enterococcus faecium. Nature of the experiment: Antibacterial activity against Enterococcus faecium ET6 by broth microdilution method.
The test system of experiment [4] is Staphylococcus aureus. Briefly: Antibacterial activity against methicillin-resistant Staphylococcus aureus SA14 by broth microdilution method.
Experiment [5] concerns Staphylococcus aureus. Briefly: Antibacterial activity against methicillin-resistant Staphylococcus aureus SA11 by broth microdilution method.
Experiment [6] concerns Staphylococcus aureus. Nature of the experiment: Antibacterial activity against methicillin-resistant Staphylococcus aureus SA86 by broth microdilution method.
Experiment [7] has as its system Staphylococcus aureus. Nature of the experiment: Antibacterial activity against methicillin-resistant Staphylococcus aureus SA88 by broth microdilution method.
Experiment [8] concerns Staphylococcus aureus. Briefly: Antibacterial activity against Staphylococcus aureus ATCC 29213 by broth microdilution method.
Experiment [9] deals with Enterococcus faecalis. Nature of the experiment: Antibacterial activity against Enterococcus faecalis ATCC 29212 by broth microdilution method.
Experiment [10] relates to Staphylococcus aureus. Nature of the experiment: Bactericidal activity against Staphylococcus aureus ATCC 29213 incubated prior to replating on agar plate measured after overnight incubation.
In experiment [11] the test system is Enterococcus faecalis. Briefly: Bactericidal activity against Enterococcus faecalis ATCC 29212 incubated prior to replating on agar plate measured after overnight incubation.
Experiment [12] has as its system Staphylococcus aureus. Nature of the experiment: Antibacterial activity against Staphylococcus aureus USA300 infected in Balb/c mouse model of sepsis assessed as mouse survival at 0.925 mg/kg, sc administered twice daily for 5 days starting from 1 hr post-infection relative to control.
The test system of experiment [13] is Staphylococcus aureus. Nature of the experiment: Antibacterial activity against methicillin-resistant Staphylococcus aureus ATCC 33591 infected in iv dosed CD-1 ICR mouse administered as single dose measured after 7 days. Particulars: ATCC 33591, iv, 168 h.
In experiment [14] the test system is Staphylococcus aureus. Briefly: Antibacterial activity against methicillin-resistant Staphylococcus aureus 0114 infected in iv dosed CD-1 ICR mouse administered as single dose measured after 7 days. Particulars: Staphylococcus aureus, 0114, iv, 168 h.
Experiment [15] relates to Enterococcus faecalis. Briefly: Antibacterial activity against Enterococcus faecalis ZS129 by broth microdilution method.
Experiment [16] has as its system Enterococcus faecalis. Nature of the experiment: Antibacterial activity against Enterococcus faecalis T1027 by broth microdilution method.
In experiment [17] the test system is Staphylococcus aureus. Nature of the experiment: Antibacterial activity against Staphylococcus aureus ATCC 29213 assessed as mutation prevention concentration measured after 72 hrs. Conditions: ATCC 29213, 72 h.
Experiment [18] deals with Enterococcus faecalis. Nature of the experiment: Antibacterial activity against Enterococcus faecalis ATCC 29212 assessed as mutation prevention concentration measured after 72 hrs. Conditions: ATCC 29212, 72 h.
Experiment [19] deals with Staphylococcus aureus. Nature of the experiment: Antibacterial activity against Staphylococcus aureus ATCC 29213 assessed as ratio of MIC after and before 1 serial passage at sub-MIC by broth microdilution method.
Experiment [20] concerns Staphylococcus aureus. Nature of the experiment: Antibacterial activity against Staphylococcus aureus ATCC 29213 assessed as ratio of MIC after and before 7 serial passages at sub-MIC by broth microdilution method.

Converted amounts (≈) assume the structure as drawn.

The MIC is the lowest concentration that inhibits growth of the organism. A higher MIC goes with a less susceptible organism. Broadly, the MBC is the lowest tested concentration that kills the bacteria rather than only halting them. Low readings indicate greater bactericidal potency, high ones weaker bactericidal potency. Usually ED50 stands for the dose at which the effect has come halfway, by size or by number of responders. Lower therefore signals greater potency. Consider `CCCCCCCCCC(=O)N[C@@H](Cc1c[nH]c2ccccc12)C(=O)N[C@H](CC(N)=O)C(=O)N[C@@H](CC(=O)O)C(=O)N[C@@H]1C(=O)NCC(=O)N[C@@H](CCCN)C(=O)N[C@@H](CC(=O)O)C(=O)N[C@H](C)C(=O)N[C@@H](CC(=O)O)C(=O)NCC(=O)N[C@H](CO)C(=O)N[C@@H]([C@@H](C)CC(=O)O)C(=O)N[C@@H](CC(=O)c2ccccc2N)C(=O)O[C@@H]1C`, for which the MIC was 2 µg/mL (≈ 1.23 µM) against Enterococcus faecium [1]; 0.5 µg/mL (≈ 0.309 µM) in the experiment on Enterococcus faecalis [2]; 4 µg/mL (≈ 2.47 µM) in the experiment with Enterococcus faecium [3]; 0.5 µg/mL (≈ 0.309 µM) against Staphylococcus aureus [4]; 2 µg/mL (≈ 1.23 µM) against Staphylococcus aureus [5]; 0.5 µg/mL (≈ 0.309 µM) in the experiment with Staphylococcus aureus [6]. Also, the MIC against Staphylococcus aureus [7] turned out to be 0.5 µg/mL (≈ 0.309 µM); in the experiment on Staphylococcus aureus [8] it was 0.5 µg/mL (≈ 0.309 µM); in the experiment with Enterococcus faecalis [9], 4 µg/mL (≈ 2.47 µM); with Enterococcus faecalis [15], 0.5 µg/mL (≈ 0.309 µM); in the experiment on Enterococcus faecalis [16] it was 16 µg/mL (≈ 9.87 µM). Moreover, the MBC against Staphylococcus aureus [10] worked out at 0.25 µg/mL (≈ 0.154 µM); against Enterococcus faecalis [11], 16 µg/mL (≈ 9.87 µM). The survival at 0.925 mg/kg in the experiment on Staphylococcus aureus [12] was determined as 50%. For the same molecule, the 50% effective dose (ED50) in the experiment with Staphylococcus aureus [13] amounted to 2.14 mg/kg; with Staphylococcus aureus [14] it was 2.19 mg/kg. In addition, the MPC in the experiment with Staphylococcus aureus [17] was found to be 16 µg/mL; with Enterococcus faecalis [18], 32 µg/mL. The Ratio in the experiment with Staphylococcus aureus [19] is listed as 2; in the experiment with Staphylococcus aureus [20] it was 8.

These data come from ChEMBL document CHEMBL4402571, “Methylation of Daptomycin Leading to the Discovery of Kynomycin, a Cyclic Lipodepsipeptide Active against Resistant Pathogens” (J Med Chem, 2020).
